Legend:
[1] = molecular target: Nicotinic acetylcholine receptor alpha-1/beta-1 (Homo sapiens) (UniProt P02708+P11230); assay: NMUSCLEH_ANTAG Cerep selectivity data (BI); format: protein-complex assay; settings: filed as antagonist, Compound concentration 20.0 uM
[2] = molecular target: Mitogen-activated protein kinase kinase kinase 20 (Homo sapiens) (UniProt Q9NYL2); assay: ZAK Invitrogen selectivity data (BI); settings: Compound concentration 3.0 uM
[3] = system: T1, Receptor-type tyrosine-protein kinase FLT3 (Homo sapiens), P36888 [D835Y]; assay: FLT3 D835Y Invitrogen selectivity data (BI); settings: Compound concentration 3.0 uM
T1 sequence (whole entry): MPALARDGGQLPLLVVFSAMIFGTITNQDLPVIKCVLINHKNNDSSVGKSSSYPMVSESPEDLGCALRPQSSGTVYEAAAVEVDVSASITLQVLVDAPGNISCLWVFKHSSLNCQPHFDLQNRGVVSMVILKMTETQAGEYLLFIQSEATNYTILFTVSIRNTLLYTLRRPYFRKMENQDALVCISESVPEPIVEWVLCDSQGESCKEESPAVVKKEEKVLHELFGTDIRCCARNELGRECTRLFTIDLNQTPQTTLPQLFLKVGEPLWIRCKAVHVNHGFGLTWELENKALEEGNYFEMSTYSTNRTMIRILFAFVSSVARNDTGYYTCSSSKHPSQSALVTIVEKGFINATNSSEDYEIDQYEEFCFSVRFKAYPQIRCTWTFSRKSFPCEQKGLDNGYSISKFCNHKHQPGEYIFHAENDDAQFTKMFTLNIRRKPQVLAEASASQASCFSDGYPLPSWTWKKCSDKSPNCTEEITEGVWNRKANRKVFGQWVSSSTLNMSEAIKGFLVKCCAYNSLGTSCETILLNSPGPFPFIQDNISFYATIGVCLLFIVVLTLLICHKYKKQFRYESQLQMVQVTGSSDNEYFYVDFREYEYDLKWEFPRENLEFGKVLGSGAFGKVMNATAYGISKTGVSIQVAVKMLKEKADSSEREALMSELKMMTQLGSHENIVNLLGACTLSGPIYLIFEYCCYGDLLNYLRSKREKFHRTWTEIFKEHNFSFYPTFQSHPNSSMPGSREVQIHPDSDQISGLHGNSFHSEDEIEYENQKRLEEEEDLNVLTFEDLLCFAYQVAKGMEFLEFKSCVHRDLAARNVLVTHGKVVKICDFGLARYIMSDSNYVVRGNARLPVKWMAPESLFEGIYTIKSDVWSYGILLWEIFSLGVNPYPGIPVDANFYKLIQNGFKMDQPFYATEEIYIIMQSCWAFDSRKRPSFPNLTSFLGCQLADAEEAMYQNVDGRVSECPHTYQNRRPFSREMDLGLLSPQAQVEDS

[4] = molecular target: T2, Serine/threonine-protein kinase Nek9 (Homo sapiens) (UniProt Q8TD19); assay: NEK9 Invitrogen selectivity data (BI); settings: Compound concentration 3.0 uM
T2 sequence (whole entry): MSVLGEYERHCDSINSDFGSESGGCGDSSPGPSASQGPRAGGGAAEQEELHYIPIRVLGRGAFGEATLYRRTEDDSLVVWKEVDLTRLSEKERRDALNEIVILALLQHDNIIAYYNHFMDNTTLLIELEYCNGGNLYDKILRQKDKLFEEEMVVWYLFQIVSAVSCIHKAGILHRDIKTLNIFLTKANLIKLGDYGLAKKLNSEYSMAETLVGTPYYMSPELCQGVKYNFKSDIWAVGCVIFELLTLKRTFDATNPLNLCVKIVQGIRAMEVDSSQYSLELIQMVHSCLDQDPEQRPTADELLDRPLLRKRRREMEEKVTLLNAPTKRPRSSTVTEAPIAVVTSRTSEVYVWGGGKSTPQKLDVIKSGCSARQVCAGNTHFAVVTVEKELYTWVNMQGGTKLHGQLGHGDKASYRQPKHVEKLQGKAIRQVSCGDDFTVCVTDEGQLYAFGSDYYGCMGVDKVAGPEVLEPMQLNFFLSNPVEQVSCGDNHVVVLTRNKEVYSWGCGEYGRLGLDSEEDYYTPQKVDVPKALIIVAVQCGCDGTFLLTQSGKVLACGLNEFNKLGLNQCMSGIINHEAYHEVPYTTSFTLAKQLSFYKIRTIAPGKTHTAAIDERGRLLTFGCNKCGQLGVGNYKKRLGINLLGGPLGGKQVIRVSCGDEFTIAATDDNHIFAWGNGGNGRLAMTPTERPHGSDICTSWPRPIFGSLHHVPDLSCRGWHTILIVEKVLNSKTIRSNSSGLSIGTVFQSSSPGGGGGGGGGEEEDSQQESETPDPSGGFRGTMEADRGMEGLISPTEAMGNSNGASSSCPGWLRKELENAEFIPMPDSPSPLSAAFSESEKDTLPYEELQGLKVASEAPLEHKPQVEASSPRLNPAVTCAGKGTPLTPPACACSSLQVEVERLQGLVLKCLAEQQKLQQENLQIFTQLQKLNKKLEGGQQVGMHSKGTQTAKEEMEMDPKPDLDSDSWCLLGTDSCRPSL

[5] = molecular target: Tyrosine-protein kinase Blk (Homo sapiens) (UniProt P51451); assay: BLK Invitrogen selectivity data (BI); settings: Compound concentration 3.0 uM

Measured: residual activity

Sequence of Tyrosine-protein kinase Blk (Homo sapiens) (P51451 2-505 limits assumed): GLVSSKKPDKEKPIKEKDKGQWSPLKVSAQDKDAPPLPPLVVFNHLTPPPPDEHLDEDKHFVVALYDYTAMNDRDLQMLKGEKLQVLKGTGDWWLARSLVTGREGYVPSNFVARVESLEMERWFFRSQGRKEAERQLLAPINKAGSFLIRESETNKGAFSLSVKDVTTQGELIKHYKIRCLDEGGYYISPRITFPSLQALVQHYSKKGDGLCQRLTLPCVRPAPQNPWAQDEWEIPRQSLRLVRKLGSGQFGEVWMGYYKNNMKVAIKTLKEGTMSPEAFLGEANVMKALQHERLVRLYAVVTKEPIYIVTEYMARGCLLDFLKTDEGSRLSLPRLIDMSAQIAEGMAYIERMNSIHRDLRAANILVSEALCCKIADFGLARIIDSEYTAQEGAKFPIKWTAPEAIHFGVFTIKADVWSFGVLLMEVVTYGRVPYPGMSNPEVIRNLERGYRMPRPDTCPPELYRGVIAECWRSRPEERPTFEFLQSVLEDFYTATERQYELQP
Sequence of Mitogen-activated protein kinase kinase kinase 20 (Homo sapiens) (Q9NYL2 2-800 limits assumed): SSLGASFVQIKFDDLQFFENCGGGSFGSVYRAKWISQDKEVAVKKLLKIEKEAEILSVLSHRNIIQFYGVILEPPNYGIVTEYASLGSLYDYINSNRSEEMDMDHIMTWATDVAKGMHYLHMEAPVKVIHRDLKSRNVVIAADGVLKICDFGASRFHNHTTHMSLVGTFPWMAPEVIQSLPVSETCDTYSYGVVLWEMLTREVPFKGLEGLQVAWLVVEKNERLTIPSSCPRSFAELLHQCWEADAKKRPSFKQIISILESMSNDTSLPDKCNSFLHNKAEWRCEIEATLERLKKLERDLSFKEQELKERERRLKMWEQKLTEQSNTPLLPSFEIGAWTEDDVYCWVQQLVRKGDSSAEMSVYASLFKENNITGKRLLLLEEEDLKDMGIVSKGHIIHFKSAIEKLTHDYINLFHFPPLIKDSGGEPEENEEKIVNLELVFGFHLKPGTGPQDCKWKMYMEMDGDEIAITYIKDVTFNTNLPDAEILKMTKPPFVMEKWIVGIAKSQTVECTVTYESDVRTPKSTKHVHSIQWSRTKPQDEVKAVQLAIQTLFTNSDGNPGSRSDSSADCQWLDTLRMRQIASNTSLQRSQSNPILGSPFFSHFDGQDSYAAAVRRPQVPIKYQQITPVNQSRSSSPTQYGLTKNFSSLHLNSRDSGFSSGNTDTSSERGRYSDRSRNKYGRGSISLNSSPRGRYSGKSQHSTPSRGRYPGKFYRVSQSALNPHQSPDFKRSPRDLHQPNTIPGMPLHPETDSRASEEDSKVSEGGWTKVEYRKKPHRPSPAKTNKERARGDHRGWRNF

CN(C)C(=O)Cn1cc(-c2nc([C@@](C)(c3ccc(-c4cnc(N)nc4)cc3)C3CC3)no2)cn1 [BI 665915]
inactive: [1] 120% | [2] 97% | [3] 79% | [4] 106% | [5] 88.5%

From ChEMBL document CHEMBL4507276 (2021)
